From patent publication US8952024B2, “Herbicidal pyrimidone derivatives” (E I du Pont de Nemours and Company, priority 2009, dated 2015)

Assays:
Type in all cases: in vivo
[1] = tested on: umbrella sedge (Cyperus difformis); test: Test B flooded paddy test; details: for Plant response rating, Sedge, Umbrella: Flood (flooded paddy test), 13 to 15 days
Procedure, shortened: (§1)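 Seedlings reaching 2 leaves are flooded 3 cm deep; test material is delivered to that water, which stays at the same depth. Plants remain in a greenhouse 13–15 days and are then scored by eye versus controls from 0 to 100.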

[2] = tested on: ducksalad (Heteranthera limosa); test: Test B flooded paddy test; details: for Plant response rating, Ducksalad: Flood (flooded paddy test), 13 to 15 days
Procedure, shortened: as §1

[3] = tested on: barnyardgrass (Echinochloa crus-galli); test: Test B flooded paddy test; details: for Plant response rating, Barnyardgrass: Flood (flooded paddy test), 13 to 15 days
Procedure, shortened: as §1

[4] = tested on: rice (Oryza sativa); test: Test B flooded paddy test; details: for Plant response rating, Rice: Flood (flooded paddy test), 13 to 15 days
Procedure, shortened: as §1

[5] = tested on: velvetleaf (Abutilon theophrasti); test: Test A pre-/postemergence plant response
Procedure, shortened: (§2)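 Each species was treated preemergence via directed soil spray and postemergence at the one- to two-leaf stage, with compounds formulated in a non-phytotoxic solvent plus surfactant. Visual injury relative to untreated controls was rated after about ten days on a 0–100 scale.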

[6] = tested on: giant foxtail (Setaria faberii); test: Test A pre-/postemergence plant response
Procedure, shortened: as §2

[7] = tested on: barnyardgrass (Echinochloa crus-galli); test: Test A pre-/postemergence plant response
Procedure, shortened: as §2

[8] = tested on: wheat (Triticum aestivum); test: Test A pre-/postemergence plant response
Procedure, shortened: as §2

[9] = tested on: pigweed (Amaranthus retroflexus); test: Test A pre-/postemergence plant response
Procedure, shortened: as §2

[10] = tested on: corn (Zea mays); test: Test A pre-/postemergence plant response
Procedure, shortened: as §2

[11] = tested on: morningglory (Ipomoea spp.); test: Test A pre-/postemergence plant response; details: for Plant response rating, Morningglory: 125 g ai/ha
Procedure, shortened: as §2

[12] = tested on: large crabgrass (Digitaria sanguinalis); test: Test A pre-/postemergence plant response
Procedure, shortened: as §2

[13] = tested on: Russian thistle (Salsola iberica); test: Test F combination of compound 2 with bromoxynil, postemergence; details: 15 days, mean of three replicates, scale 0 to 100
Procedure: Test F evaluated the effect of combining compound 2 with bromoxynil. The test species for this experiment was Russian thistle (Salsola iberica), which was prepared by sowing seeds into a blend of loam soil and sand. Test chemicals were formulated in a non-phytotoxic solvent mixture that included a surfactant and applied postemergence to plants ranging in height from 12 to 20 cm. […] Treatments consisted of Compound 2, bromoxynil, or their combination, using a spray volume of 457 L/ha. Each treatment was replicated three times. Treated plants and untreated controls were maintained in a greenhouse for 15 days, after which time all plants were visually evaluated and compared to the untreated controls. […] Colby's Equation was used to determine the herbicidal effects expected from the mixtures. Colby's Equation (Colby, S.

[14] = 250 g ai/ha, flooded paddy test, visual rating on 0 to 100 scale (0 no effect, 100 complete control) after 13 to 15 days
[15] = 62 g ai/ha, scale of 0 to 100 where 0 is no effect and 100 is complete control
[16] = 125 g ai/ha, scale 0 to 100, 0 is no effect, 100 is complete control
[17] = Flood, 31 g ai/ha, scale 0 to 100 (0 no effect, 100 complete control)
[18] = Postemergence, 125 g ai/ha, visual injury, 0 to 100 scale (0 no effect, 100 complete control), approx. ten days
[19] = Postemergence, 500 g ai/ha, visual injury, 0 to 100 scale (0 no effect, 100 complete control), approx. ten days
[20] = Preemergence, 125 g ai/ha, 0 to 100 scale where 0 is no effect and 100 is complete control, approximately ten days
[21] = Preemergence, 500 g ai/ha, 0 to 100 scale, 0 = no effect, 100 = complete control
[22] = Postemergence, 125 g ai/ha, 0 to 100 scale where 0 is no effect and 100 is complete control

Question: What does the source list for `C#Cc1ccc(-c2ncc(C(=O)C3=C(O)C4CCC(C4)C3=O)c(=O)n2C2CCCCC2)cc1` (stereo not shown) [Compound 254]?
Answer: Plant response rating, Flood, Sedge, Umbrella [1, 14]: 80; Plant response rating, Sedge, Umbrella [1, 15]: 50; Plant response rating, Sedge, Umbrella [1, 16]: 75; Sedge, Umbrella plant response rating [1, 17]: 30; Plant response rating, Flood, Ducksalad [2, 14]: 100; Plant response rating, Ducksalad [2, 15]: 85; Plant response rating, Ducksalad [2, 16]: 85; Ducksalad plant response rating [2, 17]: 45; Plant response rating, Flood, Barnyardgrass [3, 14]: 15; Plant response rating, Barnyardgrass [3, 15]: 0; Plant response rating, Barnyardgrass [3, 16]: 10; Barnyardgrass plant response rating [3, 17]: 0; Plant response rating, Flood, Rice [4, 14]: 0; Plant response rating, Rice [4, 15]: 0; Plant response rating, Rice [4, 16]: 0; Rice plant response rating [4, 17]: 0; Plant response rating, Velvetleaf [5, 18]: 50; Velvetleaf plant response rating [5, 19]: 90; Plant response rating, Velvetleaf [5, 20]: 0; Plant response rating, Velvetleaf [5, 21]: 20; Plant response rating, Foxtail, Giant [6, 18]: 10; Foxtail, Giant plant response rating [6, 19]: 50; Plant response rating, Foxtail, Giant [6, 20]: 0; Plant response rating, Foxtail, Giant [6, 21]: 30; Plant response rating, Barnyardgrass [7, 22]: 0; Barnyardgrass plant response rating [7, 19]: 90; Plant response rating, Barnyardgrass [7, 20]: 0; Plant response rating, Barnyardgrass [7, 21]: 10; Plant response rating, Wheat [8, 18]: 0; Wheat plant response rating [8, 19]: 0; Plant response rating, Wheat [8, 20]: 0; Plant response rating, Wheat [8, 21]: 0; Plant response rating, Pigweed [9, 18]: 60; Pigweed plant response rating [9, 19]: 90; Plant response rating, Pigweed [9, 20]: 0; Plant response rating, Pigweed [9, 21]: 0; Plant response rating, Corn [10, 22]: 0; Corn plant response rating [10, 19]: 10; Plant response rating, Corn [10, 20]: 0; Plant response rating, Corn [10, 21]: 0; Plant response rating, Morningglory ([11]; Postemergence, visual injury, 0 to 100 scale (0 no effect, 100 complete control), approx. ten days): 20; Morningglory plant response rating [11, 19]: 50; Plant response rating, Morningglory ([11]; Preemergence, 0 to 100 scale where 0 is no effect and 100 is complete control, approximately ten days): 0; Plant response rating, Crabgrass, Large [12, 22]: 20; Crabgrass, Large plant response rating [12, 19]: 70; Plant response rating, Crabgrass, Large [12, 20]: 0; Plant response rating, Crabgrass, Large [12, 21]: 50

Question: Which results are given for `N#Cc1cc(Br)c(O)c(Br)c1` [bromoxynil, reference compound]?
Answer: Russian Thistle Obsd. (observed effect) ([13]; Bromoxynil 70 g a.i./ha alone): 8; Russian Thistle Obsd. (observed effect) ([13]; Bromoxynil 140 g a.i./ha alone): 13
